The experiment deals with L1210 leukemia ip in BDF1 mice, survival T/C. The experiment is described as follows: NCI In Vivo Anticancer Drug Screen. Data for tumor model L1210 Leukemia (intraperitoneal) in B6D2F1 (BDF1) mice. The note with it: endpoint: mean survival time, higher = longer survival. In outline: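 Transplantable tumor model; survival measured in treated vs vehicle control mice. Value = treated/control.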

Setting [1] is: dose: 12.5 mg/kg/injection, schedule: Q01DX009 (ip), vehicle: saline with Tween-80.
Setting [2] is: dose: 25.0 mg/kg/injection, schedule: Q01DX009 (ip), vehicle: saline with Tween-80.
Setting [3] is: dose: 100.0 mg/kg/injection, schedule: Q04DX003 (ip), vehicle: saline with Tween-80.
The mark [4] stands for this setting: dose: 200.0 mg/kg/injection, schedule: Q04DX003 (ip), vehicle: saline with Tween-80.
Setting [5] is: dose: 100.0 mg/kg/injection, schedule: Q04DX003 (ip), vehicle: Klucel (hydroxypropylcellulose) (HPC).
Setting [6] is: dose: 200.0 mg/kg/injection, schedule: Q04DX003 (ip), vehicle: Klucel (hydroxypropylcellulose) (HPC).
Setting [7] is: dose: 400.0 mg/kg/injection, schedule: Q04DX003 (ip), vehicle: Klucel (hydroxypropylcellulose) (HPC).
Setting [8] is: dose: 100.0 mg/kg/injection, schedule: Q01DX009 (ip), vehicle: Klucel (hydroxypropylcellulose) (HPC).
Setting [9] is: dose: 200.0 mg/kg/injection, schedule: Q01DX009 (ip), vehicle: Klucel (hydroxypropylcellulose) (HPC).
Setting [10] is: dose: 400.0 mg/kg/injection, schedule: Q01DX009 (ip), vehicle: Klucel (hydroxypropylcellulose) (HPC).
The mark [11] stands for this setting: dose: 100.0 mg/kg/injection, schedule: Q01DX001 (ip), vehicle: saline.
Where [12] appears, read: dose: 200.0 mg/kg/injection, schedule: Q01DX001 (ip), vehicle: saline.
The mark [13] stands for this setting: dose: 400.0 mg/kg/injection, schedule: Q01DX001 (ip), vehicle: saline.
[14] abbreviates: dose: 100.0 mg/kg/injection, schedule: Q01DX001 (ip), vehicle: carboxymethylcellulose (CMC).
[15] abbreviates: dose: 200.0 mg/kg/injection, schedule: Q01DX001 (ip), vehicle: carboxymethylcellulose (CMC).
Where [16] appears, read: dose: 400.0 mg/kg/injection, schedule: Q01DX001 (ip), vehicle: carboxymethylcellulose (CMC).
Where [17] appears, read: dose: 50.0 mg/kg/injection, schedule: Q01DX001 (ip), vehicle: saline.
Setting [18] is: dose: 50.0 mg/kg/injection, schedule: Q01DX009 (ip), vehicle: saline with Tween-80.
Setting [19] is: dose: 100.0 mg/kg/injection, schedule: Q01DX009 (ip), vehicle: saline with Tween-80.

The structures appear in SMILES notation. “And” between values parts separate entries of the source, which are not always exact repeats. Identical values can stand only once. Toxic doses and inconclusive results are not listed.

Take `CCCCCC(=O)Oc1c(C(C)CC)cc([N+](=O)[O-])cc1[N+](=O)[O-]` (centres undefined): the T/C runs as follows: (dose: 6.25 mg/kg/injection, schedule: Q01DX009 (ip), vehicle: saline with Tween-80) 111 % of control; under setting [1], 88 % of control; under setting [2], 90 % of control; (dose: 25.0 mg/kg/injection, schedule: Q04DX002 (ip), vehicle: saline with Tween-80) 89 % of control.

In the case of `[N-]=Cc1c(O)cccc1[N+](=O)[O-].[N-]=Cc1cc([N+](=O)[O-])ccc1O.[Ni+2]`, the T/C (dose: 12.5 mg/kg/injection, schedule: Q04DX003 (ip), vehicle: saline with Tween-80) is 95 % of control; the T/C (dose: 25.0 mg/kg/injection, schedule: Q04DX003 (ip), vehicle: saline with Tween-80) is 98 % of control; the T/C (dose: 50.0 mg/kg/injection, schedule: Q04DX003 (ip), vehicle: saline with Tween-80) was 95 % of control; the T/C under setting [3] was 92 % of control; the T/C under setting [4] is 86 % of control.

Take `O=[N+]([O-])c1ccc(Oc2c(Cl)cccc2Cl)cc1`: the T/C is 96 % of control under setting [5], 95 % of control under setting [6] and 96 % of control under setting [7].

Consider `CC(=O)Oc1cc(-c2c(C)cc(C)cc2C)c(OC(C)=O)cc1C`, for which the T/C by setting is: under setting [8], 104 % of control; under setting [5], 94 % of control; under setting [9], 97 % of control; under setting [6], 90 % of control; under setting [10], 97 % of control; under setting [7], 95 % of control.

As for `Cc1ccc(S(=O)(=O)NNC(=O)c2ccccc2NCCO)cc1`, the T/C reads like this: under setting [11], 101 % of control; under setting [12], 101 % of control; under setting [13], 103 % of control.

As to `CCOc1ccccc1C1N2CCN(CC2)C(c2ccccc2OCC)N2CCN1CC2` (centres undefined), the T/C is 100 % of control (dose: 50.0 mg/kg/injection, schedule: Q01DX001 (ip), vehicle: carboxymethylcellulose (CMC)); 100 % of control under setting [14]; 100 % of control under setting [15]; 105 % of control under setting [16].

In the case of `O=C(N/N=C/c1ccccc1)C(Oc1ccccc1)c1ccccc1` (centres undefined), the T/C by setting is: under setting [14], 94 % of control; under setting [15], 94 % of control; under setting [16], 100 % of control.

As for `O=P(N1CC1)(N1CC1)N(CCCCN(Cc1ccccc1)P(=O)(N1CC1)N1CC1)Cc1ccccc1`, the T/C by setting is: (dose: 10.0 mg/kg/injection, schedule: Q01DX001 (ip), vehicle: carboxymethylcellulose (CMC)) 104 % of control; (dose: 20.0 mg/kg/injection, schedule: Q01DX001 (ip), vehicle: carboxymethylcellulose (CMC)) 101 % of control; (dose: 40.0 mg/kg/injection, schedule: Q01DX001 (ip), vehicle: carboxymethylcellulose (CMC)) 104 % of control; (dose: 80.0 mg/kg/injection, schedule: Q01DX001 (ip), vehicle: carboxymethylcellulose (CMC)) 106 % of control; under setting [14], 92 % of control.

For the molecule `O=c1c([N+](=O)[O-])c[nH]c2cc(Cl)ccc12`, the T/C under setting [17] was 92 % of control, the T/C under setting [11] was 101 % of control, the T/C under setting [12] is 103 % of control and the T/C under setting [13] is 97 % of control.

In the case of `OCCC1CC1=C1CC1` (centres undefined), the T/C is, setting by setting: (dose: 50.0 mg/kg/injection, schedule: Q01DX009 (ip), vehicle: Klucel (hydroxypropylcellulose) (HPC)) 101 % of control; under setting [8], 98 % of control.

Take `CCN(C(=O)c1cccc(C(=O)N(CC)c2ccccc2C)c1)c1ccccc1C`: the T/C under setting [18] is 97 % of control; the T/C under setting [19] is 90 % of control; the T/C under setting [3] was 99 % of control; the T/C (dose: 200.0 mg/kg/injection, schedule: Q01DX009 (ip), vehicle: saline with Tween-80) was 89 % of control; the T/C under setting [4] was 90 % of control.

With `CCNc1nnc(N=Nc2ccccc2)s1`, the T/C under setting [1] was 97 % of control; the T/C under setting [2] is 102 % of control and 92 % of control; the T/C under setting [18] was 86 % of control; the T/C under setting [19] was 91 % of control; the T/C (dose: 100.0 mg/kg/injection, schedule: Q04DX002 (ip), vehicle: saline with Tween-80) was 170 % of control; the T/C (dose: 200.0 mg/kg/injection, schedule: Q04DX002 (ip), vehicle: saline with Tween-80) was 98 % of control. The T/C (dose: 400.0 mg/kg/injection, schedule: Q01DX009 (ip), vehicle: saline with Tween-80) is 91 % of control and the T/C (dose: 400.0 mg/kg/injection, schedule: Q04DX002 (ip), vehicle: saline with Tween-80) is 98 % of control.

On to `O=S1(=O)C=CC1`, for which the T/C under setting [17] was 115 % of control.

For the molecule `CCOC(=O)/C=C(/Nc1ccc(S(=O)(=O)F)cc1)c1ccccc1`, the T/C (dose: 100.0 mg/kg/injection, schedule: Q01DX001 (ip), vehicle: Klucel (hydroxypropylcellulose) (HPC)) is 104 % of control; the T/C (dose: 200.0 mg/kg/injection, schedule: Q01DX001 (ip), vehicle: Klucel (hydroxypropylcellulose) (HPC)) was 100 % of control; the T/C (dose: 400.0 mg/kg/injection, schedule: Q01DX001 (ip), vehicle: Klucel (hydroxypropylcellulose) (HPC)) is 98 % of control.

As to `O=P(N1CCCCC1)(N1CC1)N1CC1`, the T/C is, setting by setting: (dose: 0.5 mg/kg/injection, schedule: Q01DX Z (ip), vehicle: saline) 117 % of control; (dose: 2.0 mg/kg/injection, schedule: Q01DX Z (ip), vehicle: saline) 158 % of control; (dose: 3.8 mg/kg/injection, schedule: Q01DX015 (ip), vehicle: saline) 106 % of control; (dose: 4.0 mg/kg/injection, schedule: Q01DX011 (ip), vehicle: saline) 113 % of control; (dose: 5.0 mg/kg/injection, schedule: Q01DX001 (ip), vehicle: saline) 107 % of control; (dose: 6.0 mg/kg/injection, schedule: Q01DX Z (ip), vehicle: saline) 202 % of control. Further, the T/C is 124 % of control (dose: 7.5 mg/kg/injection, schedule: Q01DX015 (ip), vehicle: saline); 150 % of control (dose: 8.0 mg/kg/injection, schedule: Q01DX011 (ip), vehicle: saline); 94 % of control (dose: 9.0 mg/kg/injection, schedule: Q01DX Z (ip), vehicle: saline); 100 % of control (dose: 10.0 mg/kg/injection, schedule: Q01DX001 (ip), vehicle: saline); 94 % of control (dose: 13.5 mg/kg/injection, schedule: Q01DX Z (ip), vehicle: saline); 95 % of control (dose: 15.0 mg/kg/injection, schedule: Q01DX011 (ip), vehicle: saline). Moreover, the T/C is 122 % of control (dose: 20.0 mg/kg/injection, schedule: Q01DX001 (ip), vehicle: saline); 114 % of control (dose: 21.0 mg/kg/injection, schedule: Q01DX Z (ip), vehicle: saline); 106 % of control (dose: 30.0 mg/kg/injection, schedule: Q01DX015 (ip), vehicle: saline); 169 % of control (dose: 40.0 mg/kg/injection, schedule: Q01DX001 (ip), vehicle: saline).

Consider `C=CC[N+](CC=C)(CC=C)C/C=C/C[N+](CC=C)(CC=C)CC=C`, for which the T/C is, setting by setting: (dose: 6.25 mg/kg/injection, schedule: Q01DX009 (ip), vehicle: water) 95 % of control; (dose: 12.5 mg/kg/injection, schedule: Q01DX009 (ip), vehicle: water) 94 % of control and 91 % of control; (dose: 25.0 mg/kg/injection, schedule: Q01DX009 (ip), vehicle: water) 93 % of control and 101 % of control; (dose: 50.0 mg/kg/injection, schedule: Q01DX009 (ip), vehicle: water) 104 % of control.

Consider `COc1cc(OC)c(NC(=O)Nc2ccc([N+](=O)[O-])cc2OC)cc1Cl`, for which the T/C under setting [8] is 101 % of control, the T/C under setting [9] was 95 % of control and the T/C under setting [10] is 97 % of control.

Source of the values: PubChem BioAssay AID248 (DTP/NCI, 2004).
